Results reported in ChEMBL document CHEMBL1127116, “Synthesis and structure-activity relationships of a novel series of non-peptide AT2-selective angiotensin II receptor antagonists” (Bioorg Med Chem Lett, 1993).
pIC50: −log10 of the molar value.

Key:
[1] = biological target: T1, Type-2 angiotensin II receptor (Rattus norvegicus, UniProt P35351); assay: Inhibition of Angiotensin II receptor, type 2 in rat midbrain using [125I]-Sar1,Ile8 angiotensin II binding assay
T1 sequence (P35351 whole entry): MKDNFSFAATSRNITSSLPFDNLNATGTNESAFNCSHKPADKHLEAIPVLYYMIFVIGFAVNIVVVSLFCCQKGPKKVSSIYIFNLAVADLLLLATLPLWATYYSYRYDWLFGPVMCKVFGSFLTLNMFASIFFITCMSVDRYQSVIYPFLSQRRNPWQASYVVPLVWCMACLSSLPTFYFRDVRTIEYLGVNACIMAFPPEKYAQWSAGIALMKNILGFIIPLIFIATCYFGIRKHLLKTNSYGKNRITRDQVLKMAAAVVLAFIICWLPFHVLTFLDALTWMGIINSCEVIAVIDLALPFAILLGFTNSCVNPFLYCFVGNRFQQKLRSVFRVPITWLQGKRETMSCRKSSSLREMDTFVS

[2] = biological target: T2, Type-1 angiotensin II receptor (Oryctolagus cuniculus, UniProt P34976); assay: Inhibition of angiotensin Angiotensin II receptor, type 1 in rabbit aorta using [125I-Sar1,Ile8] angiotensin II binding assay; type: tissue-based
T2 sequence (P34976 whole entry): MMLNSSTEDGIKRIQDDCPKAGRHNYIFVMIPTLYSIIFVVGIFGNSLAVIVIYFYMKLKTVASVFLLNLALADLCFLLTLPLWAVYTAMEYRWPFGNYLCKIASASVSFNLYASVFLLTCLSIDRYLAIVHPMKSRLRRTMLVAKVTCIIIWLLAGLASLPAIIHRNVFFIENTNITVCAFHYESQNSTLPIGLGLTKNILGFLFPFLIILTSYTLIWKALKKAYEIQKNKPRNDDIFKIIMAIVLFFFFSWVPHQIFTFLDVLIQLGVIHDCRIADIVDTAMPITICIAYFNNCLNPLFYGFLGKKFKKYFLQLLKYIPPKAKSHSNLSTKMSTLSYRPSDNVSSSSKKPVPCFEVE

[3] = biological target: T2, Type-1 angiotensin II receptor; assay: Inhibition of Angiotensin II receptor, type 1 in rabbit aorta using [125I-Sar1,Ile8] angiotensin II binding assay; type: tissue-based
[4] = Oral bioavailability in rat; type: ADME, organism-based; conditions: in vivo
[5] = Half life in rats; type: ADME, organism-based; conditions: rat, in vivo
[6] = biological target: T1, Type-2 angiotensin II receptor; assay: Compound was evaluated for inhibition of Angiotensin II receptor, type 2 in rat midbrain AT2 assay; type: tissue-based

SMILES	pIC50 [1]	pIC50 [2]	pIC50 [3]	further results
CCCCCN(CCCCC)C(=O)N1CCN(C(=O)N(c2ccccc2)c2cccc(Br)c2)[C@H](C(=O)O)C1	9.22	4.23	–	–
CCCCCN(CCCCC)C(=O)N1CCN(C(=O)N(c2ccccc2)c2cccc(OC)c2)[C@H](C(=O)O)C1	8.11	< 5.00	–	–
CCCCCN(CCCCC)C(=O)N1CCN(C(=O)N(c2ccccc2)c2ccccc2)C(C(=O)O)C1 (stereo unspecified)	8.77	–	< 4.52	–
CCCCCN(CCCCC)C(=O)N1CCN(C(=O)N(c2ccccc2)c2ccc(C(=O)O)cc2)[C@H](C(=O)O)C1	6.74	5.85	–	–
O=C(N1CCN(C(=O)N(c2ccccc2)c2ccccc2)CC1)N(c1ccccc1)c1ccccc1	7.43	< 4.00	–	–
CCCCCN(CCCCC)C(=O)N1CCN(C(=O)N(c2ccccc2)c2ccccc2)[C@H](CCO)C1	7.82	< 5.00	–	–
CC1CN(C(=O)N(c2ccccc2)c2ccccc2)CCN1C(=O)N(c1ccccc1)c1ccccc1 (stereo unspecified)	7.82	< 4.00	–	–
CCCCCN(CCCCC)C(=O)N1CCN(C(=O)N(c2ccccc2)c2ccccc2)[C@H](C(=O)O)C1	8.85	4.41	–	–
CCCCCN(CCCCC)C(=O)N1CCN(C(=O)C(c2ccccc2)c2ccccc2)C(C(=O)O)C1 (stereo unspecified)	8.96	–	< 4.00	–
CCCCCN(CCCCC)C(=O)N1CCN(C(=O)N(c2ccccc2)c2ccccc2)CC1	7.15	4.90	–	–
CCCCCN(CCCCC)C(=O)N1CCN(C(=O)N(CCCCC)CCCCC)[C@H](C(=O)O)C1	7.09	–	< 4.52	–
CCCCCN(CCCCC)C(=O)N1CCN(C(=O)N(c2ccccc2)c2ccccc2)[C@@H](C(=O)O)C1	8.35	–	< 5.00	–
CCCCCN(CCCCC)C(=O)N1CCN(C(=O)N(c2ccccc2)c2ccc(I)cc2)[C@H](C(=O)O)C1	8.15	5.07	–	–
CCCCCN(CCCCC)C(=O)N1CCN(C(=O)N(c2ccccc2)c2ccccc2)[C@H](CO)C1	7.52	–	< 5.00	–
CCCCCN(CCCCC)C(=O)N1CCN(C(=O)N(c2ccccc2)c2ccc(C(=O)OCC)cc2)[C@H](C(=O)O)C1	7.46	< 5.00	–	–
CCCCCN(CCCCC)C(=O)N1CCN(C(=O)N(c2ccccc2)c2ccc(O)cc2)[C@H](C(=O)O)C1	6.64	5.00	–	–
O=C(O)[C@@H]1CN(C(=O)N(c2ccccc2)c2ccccc2)CCN1C(=O)N(c1ccccc1)c1ccccc1	–	–	< 4.00	bioavailability [4]: 21%; half-life [5]: > 6 h
CCCCCN(C)C(=O)N1CCN(C(=O)N(c2ccccc2)c2ccccc2)[C@H](C(=O)O)C1	7.82	–	< 4.52	–
CN(C(=O)N1CCN(C(=O)N(c2ccccc2)c2ccccc2)[C@H](C(=O)O)C1)c1ccccc1	6.77	–	< 5.00	–
CCCCCN(C(=O)N1CCN(C(=O)N(c2ccccc2)c2ccccc2)C[C@H]1C(=O)O)c1ccccc1	7.70	–	4.35	–
CC1CN(C(=O)N(c2ccccc2)c2ccccc2)C(C)CN1C(=O)N(c1ccccc1)c1ccccc1 (stereo unspecified)	8.00	< 4.00	–	–
CCCCCN(CCCCC)C(=O)N1CCN(C(=O)N(c2ccccc2)c2cccc(Cl)c2)[C@H](C(=O)O)C1	9.40	5.29	–	–
COc1ccc(Cn2cnc3c2C[C@@H](C(=O)O)N(C(=O)C(c2ccccc2)c2ccccc2)C3)cc1C	–	–	–	pIC50 [6]: 7.42
CCCCCN(CCCCC)C(=O)N1CCN(C(=O)N(c2ccccc2)c2ccc(Br)cc2)[C@H](C(=O)O)C1	8.57	5.27	–	–
CCCCCN(CCCCC)C(=O)N1CCN(C(=O)N(c2ccccc2)c2ccccc2)[C@H](C(=O)OC)C1	7.92	–	4.68	–
CCCCCN(CCCCC)C(=O)N1CCN(C(=O)N(c2ccccc2)c2cccc(C)c2)[C@H](C(=O)O)C1	9.15	5.00	–	–
CCCCCN(CCCCC)C(=O)N1CCN(C(=O)N(c2ccccc2)c2ccccc2)C[C@H]1C(=O)O	7.64	–	4.60	–
CC(C)N(C(=O)N1CCN(C(=O)N(c2ccccc2)c2ccccc2)[C@H](C(=O)O)C1)C(C)C	7.40	–	< 5.00	–
